# Test results published in ChEMBL document CHEMBL5543137, “Design and Synthesis of Novel Ultralong-Acting Peptides as EDP-EBP Interaction Inhibitors for Pulmonary Fibrosis Treatment” (J Med Chem, 2024).
# Activity calls are given as the source filed them. The calls are words filed in the database; no cut-off is given here. Starred links: 1 amine or outer side, 2 acyl side, 3 side chain; linkers in the order of their positions; H or OH if unused. Non-standard residues stand in square brackets, D forms with d. Residues, ends and D or L forms follow the SMILES beside them. *: point of attachment. C20 diacid = O=C(O)CCCCCCCCCCCCCCCCCCC(=O)*; γGlu = O=C(O)[C@H](CCC(=O)[*:2])N[*:1]; Iva = CC[C@](C)(N)C(=O)O; PEG2 = NCCOCCOCCC(=O)O
# Experiments:
# Mus musculus [1] = assay: Antifibrotic activity against BLM-induced C57BL/6 mouse pulmonary fibrosis model assessed as reduction in FN expression at 240 ug/kg/day, sc administered for 2 weeks starting from 7 days post BLM induction and measured after 21 days post BLM induction in presence of Clo-Lip; assay type: functional, organism-based; details: dose 240.0 µg/kg/day
# Mus musculus [2] = assay: Antifibrotic activity against BLM-induced C57BL/6 mouse pulmonary fibrosis model assessed as increase in serum MMP-12 level at 30 to 240 ug/kg/day, sc administered for 2 weeks starting from 7 days post BLM induction and measured after 21 days post BLM induction; assay type: functional, organism-based; details: dose 30-240 µg/kg/day
# Mus musculus [3] = assay: Antifibrotic activity against BLM-induced sc dosed C57BL/6 mouse pulmonary fibrosis model assessed as reversal of body weight indices administered for 2 weeks starting from 7 days post BLM induction and measured after 21 days post BLM induction; assay type: functional, organism-based; details: dose 30-240 µg/kg
# Mus musculus [4] = assay: Antifibrotic activity against BLM-induced C57BL/6 mouse pulmonary fibrosis model assessed as reduction in Mgp gene expression at 240 ug/kg/day, sc administered for 2 weeks starting from 7 days post BLM induction and measured after 21 days post BLM induction by ScRNA-sequencing analysis; assay type: functional, organism-based; details: dose 240.0 µg/kg/day
# Mus musculus [5] = assay: Antifibrotic activity against BLM-induced C57BL/6 mouse pulmonary fibrosis model assessed as reduction in proportion of fibroblasts at 240 ug/kg/day, sc administered for 2 weeks starting from 7 days post BLM induction and measured after 21 days post BLM induction; assay type: functional, organism-based; details: dose 240.0 µg/kg/day
# Mus musculus [6] = assay: Antifibrotic activity against BLM-induced C57BL/6 mouse pulmonary fibrosis model assessed as reduction in Adamts2 gene expression at 240 ug/kg/day, sc administered for 2 weeks starting from 7 days post BLM induction and measured after 21 days post BLM induction by ScRNA-sequencing analysis; assay type: functional, organism-based; details: dose 240.0 µg/kg/day
# Mus musculus [7] = assay: Antifibrotic activity against BLM-induced C57BL/6 mouse pulmonary fibrosis model at 240 ug/kg/day, sc administered for 2 weeks starting from 7 days post BLM induction and measured after 21 days post BLM induction in presence of Clo-Lip; assay type: functional, organism-based; details: dose 240.0 µg/kg/day
# RAW264.7 = assay: Effect on cell proliferation in mouse RAW264.7 cells at 10 uM after 24 hrs by flow cytometry analysis; assay type: functional, cell-based
# A549 [8] = assay: Inhibition of EBP signaling pathway in TGFalpha induced human A549 cells assessed as reduction in PI3K phosphorylation at 10 uM incubated for 24 hrs by Western blotting analysis; assay type: cell-based
# Mus musculus [9] = assay: Antifibrotic activity against BLM-induced C57BL/6 mouse pulmonary fibrosis model assessed as reduction in alpha-SMA expression at 240 ug/kg/day, sc administered for 2 weeks starting from 7 days post BLM induction and measured after 21 days post BLM induction in presence of GM6001; assay type: functional, organism-based; details: dose 240.0 µg/kg/day
# Mus musculus [10] = assay: Antifibrotic activity against BLM-induced C57BL/6 mouse pulmonary fibrosis model assessed as inhibition of activated fibroblast signature at 240 ug/kg/day, sc administered for 2 weeks starting from 7 days post BLM induction and measured after 21 days post BLM induction by gene enrichment analysis; assay type: functional, organism-based; details: dose 240.0 µg/kg/day
# Mus musculus [11] = assay: (§1) Antifibrotic activity against BLM-induced C57BL/6 mouse pulmonary fibrosis model assessed as downregulation of TNFalpha gene expression in lung tissue at 150 ug/kg, sc administered for 2 weeks starting from 7 days post BLM induction and measured after 21 days post BLM induction by RT-qPCR assay; assay type: functional, organism-based; details: dose 150.0 µg/kg
# Mus musculus [12] = assay: Antifibrotic activity against BLM-induced C57BL/6 mouse pulmonary fibrosis model assessed as reversal of fibroblast activating effect at 240 ug/kg/day, sc administered for 2 weeks starting from 7 days post BLM induction and measured after 21 days post BLM induction; assay type: functional, organism-based; details: dose 240.0 µg/kg/day
# Mus musculus [13] = assay: Antifibrotic activity against BLM-induced C57BL/6 mouse pulmonary fibrosis model assessed as reduction in MMP-12 expression at 240 ug/kg/day, sc administered for 2 weeks starting from 7 days post BLM induction and measured after 21 days post BLM induction in presence of GM6001; assay type: functional, organism-based; details: dose 240.0 µg/kg/day
# [14] = Half-life in Sprague-Dawley rat serum at 0.04 mg/kg, sc administered as single dose measured upto 10 days by LC-MS/MS method; assay type: ADME, organism-based; details: time < 10 day
# Mus musculus [15] = assay: as §1, with “reduction” for “downregulation of TNFalpha gene expression”, “fibrotic accumulation in lungs” for “lung tissue”, “immunohistochemical staining based” for “RT-qPCR”; assay type: functional, organism-based; details: dose 150.0 µg/kg
# Mus musculus [16] = assay: Antifibrotic activity against BLM-induced sc dosed C57BL/6 mouse pulmonary fibrosis model assessed as minimum effective dose administered for 2 weeks starting from 7 days post BLM induction and measured after 21 days post BLM induction; assay type: functional; details: C57BL/6, 336 h, dose 30-240 µg/kg, read-out: MED
# Mus musculus [17] = assay: Antifibrotic activity against BLM-induced C57BL/6 mouse pulmonary fibrosis model assessed as increase in MMP-12 expression at 240 ug/kg/day, sc administered for 2 weeks starting from 7 days post BLM induction and measured after 21 days post BLM induction; assay type: functional, organism-based; details: dose 240.0 µg/kg/day
# Mus musculus [18] = assay: Antifibrotic activity against BLM-induced C57BL/6 mouse pulmonary fibrosis model assessed as reduction in lung vimentin expression at 240 ug/kg/day, sc administered for 2 weeks starting from 7 days post BLM induction and measured after 21 days post BLM induction by Western blotting analysis; assay type: functional, organism-based; details: dose 240.0 µg/kg/day
# Mus musculus [19] = assay: Antifibrotic activity against BLM-induced C57BL/6 mouse pulmonary fibrosis model assessed as reduction in spp1 gene expression at 240 ug/kg/day, sc administered for 2 weeks starting from 7 days post BLM induction and measured after 21 days post BLM induction by ScRNA-sequencing analysis; assay type: functional, organism-based; details: dose 240.0 µg/kg/day
# Mus musculus [20] = assay: Antifibrotic activity against BLM-induced C57BL/6 mouse pulmonary fibrosis model assessed as reduction in Dcn gene expression at 240 ug/kg/day, sc administered for 2 weeks starting from 7 days post BLM induction and measured after 21 days post BLM induction by ScRNA-sequencing analysis; assay type: functional, organism-based; details: dose 240.0 µg/kg/day
# A549 [21] = assay: Antifibrotic activity against BLM-induced human A549 cells cocultured with RAW264.7 cells assessed as reduction in Fn expression at 10 uM after 24 hrs by Western blotting analysis; assay type: functional, cell-based
# Mus musculus [22] = assay: Antifibrotic activity against BLM-induced C57BL/6 mouse pulmonary fibrosis model assessed as reduction in MMP-12 expression at 240 ug/kg/day, sc administered for 2 weeks starting from 7 days post BLM induction and measured after 21 days post BLM induction in presence of Clo-Lip; assay type: functional, organism-based; details: dose 240.0 µg/kg/day
# Homo sapiens = organism: Homo sapiens; assay: Inhibition of neuraminidase (unknown origin) at 0.005 to 500 uM; details: dose 0.005-500 µM
# A549 [23] = assay: Downregulation of EDP level in TNFalpha induced human A549 cells at 1 to 10 uM; assay type: functional, cell-based; details: dose 1-10 µM
# Mus musculus [24] = assay: Antifibrotic activity against BLM-induced C57BL/6 mouse pulmonary fibrosis model assessed as reduction in Fbn1 gene expression at 240 ug/kg/day, sc administered for 2 weeks starting from 7 days post BLM induction and measured after 21 days post BLM induction by ScRNA-sequencing analysis; assay type: functional, organism-based; details: dose 240.0 µg/kg/day
# Mus musculus [25] = assay: Antifibrotic activity against BLM-induced C57BL/6 mouse pulmonary fibrosis model assessed as reduction in lung inflammation at 150 ug/kg, sc administered for 2 weeks starting from 7 days post BLM induction and measured after 21 days post BLM induction by immunohistochemical staining based assay; assay type: functional, organism-based; details: dose 150.0 µg/kg
# Mus musculus [26] = assay: Antifibrotic activity against BLM-induced C57BL/6 mouse pulmonary fibrosis model assessed as reduction in ECM1 gene expression at 240 ug/kg/day, sc administered for 2 weeks starting from 7 days post BLM induction and measured after 21 days post BLM induction by ScRNA-sequencing analysis; assay type: functional, organism-based; details: dose 240.0 µg/kg/day
smiles,measurement,setting,value
CC[C@](C)(NC(=O)[C@@H](NC(=O)CCOCCOCCNC(=O)CCOCCOCCNC(=O)CC[C@H](NC(=O)CCCCCCCCCCCCCCCCCCC(=O)O)C(=O)O)C(C)C)C(=O)NCC(=O)N[C@@H](CO)C(=O)N1CCC[C@H]1C(=O)N[C@@H](CO)C(=O)N[C@@H](C)C(=O)N[C@@H](CCC(N)=O)C(=O)N[C@@H](CCC(=O)O)C(=O)N[C@@H](CCC(=O)O)C(=O)N[C@@H](C)C(=O)N[C@@H](CO)C(=O)N1CCC[C@H]1C(=O)N[C@@H](C)C(N)=O ({C20 diacid-γGlu-PEG2-PEG2}-V[Iva]GSPSAQEEASPA-NH2),Activity,Mus musculus [1],inactive
same,Activity,Mus musculus [2],Active
same,Activity,Mus musculus [3],Dose-Dependent Effect
same,Activity,Mus musculus [4],Active
same,Activity,Mus musculus [5],Active
same,Activity,Mus musculus [6],Active
same,Activity,Mus musculus [7],inactive
same,Activity,RAW264.7,inactive
same,inhibition,A549 [8],Active
same,Activity,Mus musculus [9],inactive
same,Activity,Mus musculus [10],Active
same,Activity,Mus musculus [11],Active
same,Activity,Mus musculus [12],Active
same,Activity,Mus musculus [13],inactive
same,half-life,[14],33.4 h
same,Activity,Mus musculus [15],Active
same,minimal effective dose,Mus musculus [16],0.03 mg/kg
same,Activity,Mus musculus [17],Active
same,Activity,Mus musculus [18],Active
same,Activity,Mus musculus [19],Active
same,Activity,Mus musculus [20],Active
same,Activity,A549 [21],Active
same,Activity,Mus musculus [22],inactive
same,inhibition,Homo sapiens,Active
same,Activity,A549 [23],Dose-Dependent Effect
same,Activity,Mus musculus [24],Active
same,Activity,Mus musculus [25],Active
same,Activity,Mus musculus [26],Active
